Series [1] relates to HBV. The experiment in a line: Anti-HBV activity in HepG2.117 cell line (intracellular HBV DNA, real-time PCR). The series is classed as cell-based. The note with it: Hepatitis B virus, read-out: HBV-AVE-HepG2.117 EC50 (μM, mean value). Here is the method:
The anti HBV activity was measured using the HepG2.117 cell line, a stable, inducibly HBV producing cell line, which replicates HBV in the absence of doxicycline (Tet-off system). The HepG2 cell line is available from ATCC® under number HB-8065. Transfection of the HepG2 cell line can be as described in Sun and Nassal 2006 Journal of Hepatology 45 (2006) 636-645 “Stable HepG2- and Huh7-based human hepatoma cell lines for efficient regulated expression of infectious hepatitis B virus”.
For the antiviral assay, HBV replication was induced, followed by a treatment with serially diluted compound in 96-well plates. After 3 days of treatment, the antiviral activity was determined by quantification of intracellular HBV DNA using real-time PCR and an HBV specific primer set and probe.
Background: In qPCR the cycle at which signal appears reflects the starting amount.

Series [2] can be described thus: Cytotoxicity in HepG2.117 cells (ATPlite Luminescence Assay). The series is classed as cell-based. Conditions: human, incubated for 3 days, cell viability, mean value, read-out: TOX-HepG2.117 CC50 (μM, mean value). Here is the method:
Cytotoxicity of the compounds was tested using HepG2 or HepG2.117 cells, incubated for 3 days in the presence of compounds. The viability of the cells was assessed using the PERKIN ELMER ATPlite Luminescence Assay System.”

In series [3] the test system is HBV. As to the kind of experiment: HBV replication inhibition assay (BDNA assay) in HepG2.2.15 cells. Type of series: cell-based, Hepatitis B virus. Conditions: 6 days, encapsidated HBV DNA in supernatant. Summed up:
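HepG2.2.15 cells were dosed with serially diluted compound (0.5% DMSO), with compound and medium renewed at day 3. Day-6 supernatants were DNase-treated and proteinase K-lysed, and encapsidated HBV DNA was quantified by branched-DNA assay. Percent inhibition was set against DMSO controls and EC50 obtained by nonlinear fit.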

Setting [4] is: 72 h, HepG2.117 cells, 3 days of treatment, intracellular HBV DNA, mean value.

`C[C@@H]1Cc2nn3c(c2CN1C(=O)c1ccc(Cl)c(Cl)c1)C(F)(F)CC[C@@H](O)C3` (single isomer, unassigned) [Example C8, (3,4-Dichlorophenyl)[(3R,8*R)-11,11-difluoro-8-hydroxy-3-methyl-1,3,4,7,8,9,10,11-octahydro-2H-pyrido[4′,3′:3,4]pyrazolo[1,5-a]azepin-2-yl]methanone]: in the series with HBV [1] (setting [4]), the EC50 (commonly the concentration at which the effect is half-maximal) was found to be 0.019 µM. In series [2], the CC50 – broadly, the concentration that lowers cell viability or growth by half – at 3 days is above 50 µM.
Taken in the same sequence, the figures for `C#C[C@]1(O)CCC(F)(F)c2c3c(nn2C1)C[C@@H](C)N(C(=O)c1ccc(Cl)c(Cl)c1)C3` (single isomer, unassigned) [Example C10, (3,4-Dichlorophenyl)[(3R,8*R)-8-ethynyl-11,11-difluoro-8-hydroxy-3-methyl-1,3,4,7,8,9,10,11-octahydro-2H-pyrido[4′,3′:3,4]pyrazolo[1,5-a]azepin-2-yl]methanone] were 0.078 µM and 36.9 µM.
Taken in the same sequence, the figures for `C[C@@H]1Cc2nn3c(c2CN1C(=O)c1ccc(Cl)c(Cl)c1)C(F)(F)CNCC3` [Example C2, (3,4-Dichlorophenyl)[(3R)-11,11-difluoro-3-methyl-1,3,4,7,8,9,10,11-octahydro-2H-pyrido[4′,3′:3,4]pyrazolo[1,5-d][1,4]diazepin-2-yl]methanone] were 0.088 µM and above 50 µM.
Take `C#C[C@@]1(O)CCC(F)(F)c2c3c(nn2C1)C[C@@H](C)N(C(=O)c1ccc(Cl)c(Cl)c1)C3` (single isomer, unassigned) [Example C11, (3,4-Dichlorophenyl)[(3R,8*S)-8-ethynyl-11,11-difluoro-8-hydroxy-3-methyl-1,3,4,7,8,9,10,11-octahydro-2H-pyrido[4′,3′:3,4]pyrazolo[1,5-a]azepin-2-yl]methanone]: the EC50 in the series with HBV [1] (setting [4]) stood at 0.257 µM. The CC50 at 3 days in series [2] amounted to 33.8 µM.
For the compound `COc1ccc(CN2CCn3nc4c(c3C(F)(F)C2)CN(C(=O)c2ccc(Cl)c(Cl)c2)[C@H](C)C4)cc1` [Example C1, (3,4-Dichlorophenyl){(3R)-11,11-difluoro-9-[(4-methoxyphenyl)methyl]-3-methyl-1,3,4,7,8,9,10,11-octahydro-2H-pyrido[4′,3′:3,4]pyrazolo[1,5-d][1,4]diazepin-2-yl}methanone], in the series on HBV [1] (setting [4]), the EC50 was determined as 0.274 µM. In addition, the cytotoxic concentration (CC50) at 3 days in series [2] was 15.7 µM.
As to `CC(=O)NCC1CCC(F)(F)c2c3c(nn2C1)CCN(C(=O)c1ccc(Cl)c(Cl)c1)C3` (stereo not drawn) [Example C15, N-{[2-(3,4-dichlorobenzoyl)-11,11-difluoro-1,3,4,7,8,9,10,11-octahydro-2H-pyrido[4′,3′:3,4]-pyrazolo[1,5-a]azepin-8-yl]methyl}acetamide], the half-maximal effective concentration (EC50) in the series with HBV [1] (setting [4]) amounted to 0.221 µM. Moreover, the cytotoxic concentration (CC50) at 3 days in series [2] is above 50 µM.
With `C[C@@H]1Cc2nn3c(c2CN1C(=O)c1ccc(Cl)c(Cl)c1)C(F)(F)C(O)CCC3` (stereo partly drawn) [Example C6, (3,4-Dichlorophenyl)[(3R)-11,11-difluoro-10-hydroxy-3-methyl-1,3,4,7,8,9,10,11-octahydro-2H-pyrido[4′,3′:3,4]pyrazolo[1,5-a]azepin-2-yl]methanone], in the series on HBV [1] (setting [4]), the half-maximal effective concentration (EC50) was determined as 3.28 µM. The half-maximal cytotoxic concentration (CC50) at 3 days in series [2] was above 50 µM.
Regarding `C[C@@H]1Cc2nn3c(c2CN1C(=O)c1ccc(Cl)c(Cl)c1)C(F)(F)CC[C@@H](C(C)(C)O)C3` (single isomer, unassigned) [Example C14, (3,4-Dichlorophenyl)[(3R,8*R)-11,11-difluoro-8-(2-hydroxypropan-2-yl)-3-methyl-1,3,4,7,8,9,10,11-octahydro-2H-pyrido[4′,3′:3,4]pyrazolo[1,5-a]azepin-2-yl]methanone], the EC50 in the series with HBV [1] (setting [4]) was below 0.195 µM. In addition, the CC50 at 3 days in series [2] was determined as 5.76 µM.
Turning to `C[C@@H]1Cc2nn3c(c2CN1C(=O)c1ccc(Cl)c(Cl)c1)C(F)(F)CN(C)CC3` [Example C3, (3,4-Dichlorophenyl)[(3R)-11,11-difluoro-3,9-dimethyl-1,3,4,7,8,9,10,11-octahydro-2H-pyrido[4′,3′:3,4]pyrazolo[1,5-d][1,4]diazepin-2-yl]methanone], the EC50 in the series on HBV [1] (setting [4]) was 0.032 µM. The half-maximal cytotoxic concentration (CC50) at 3 days in series [2] is above 50 µM.
For `C[C@@H]1Cc2nn3c(c2CN1C(=O)c1ccc(Cl)c(Cl)c1)C(F)(F)C(Oc1ccc(C#N)cc1)CCC3` (stereo partly drawn) [Example C7, 4-{[(3R)-2-(3,4-Dichlorobenzoyl)-11,11-difluoro-3-methyl-1,3,4,7,8,9,10,11-octahydro-2H-pyrido[4′,3′:3,4]pyrazolo[1,5-a]azepin-10-yl]oxy}benzonitrile], the EC50 in the series on HBV [1] (HepG2.117, 72 h) was found to be 2.38 µM. Further, the CC50 at 3 days in series [2] was above 50 µM.
Consider `C[C@@H]1Cc2nn3c(c2CN1C(=O)c1ccc(Cl)c(Cl)c1)C(F)(F)CN(S(C)(=O)=O)CC3` [Example C4, (3,4-Dichlorophenyl)[(3R)-11,11-difluoro-9-(methanesulfonyl)-3-methyl-1,3,4,7,8,9,10,11-octahydro-2H-pyrido[4′,3′:3,4]pyrazolo[1,5-d][1,4]diazepin-2-yl]methanone], for which the EC50 in the series on HBV [1] (setting [4]) was found to be 0.052 µM. In series [2], the CC50 at 3 days is above 50 µM.
Consider `C[C@@H]1Cc2nn3c(c2CN1C(=O)c1ccc(Cl)c(Cl)c1)C(F)(F)CC[C@H](CO)C3` (single isomer, unassigned) [Example C13, (3,4-Dichlorophenyl)[(3R,8*S)-11,11-difluoro-8-(hydroxymethyl)-3-methyl-1,3,4,7,8,9,10,11-octahydro-2H-pyrido[4′,3′:3,4]pyrazolo[1,5-a]azepin-2-yl]methanone], for which the EC50 with HBV [1] (setting [4]) was below 0.195 µM. Moreover, in series [2], the CC50 at 3 days came out at 33.6 µM.
Taken in the same sequence, the figures for `C[C@@H]1Cc2nn3c(c2CN1C(=O)c1ccc(Cl)c(Cl)c1)C(F)(F)CC[C@@H](CO)C3` (single isomer, unassigned) [Example C12, (3,4-Dichlorophenyl)[(3R,8*R)-11,11-difluoro-8-(hydroxymethyl)-3-methyl-1,3,4,7,8,9,10,11-octahydro-2H-pyrido[4′,3′:3,4]pyrazolo[1,5-a]azepin-2-yl]methanone] were 0.048 µM and 32.7 µM.
On to `C[C@@H]1Cc2nn3c(c2CN1C(=O)c1ccc(Cl)c(Cl)c1)C(F)(F)CC[C@H](O)C3` (single isomer, unassigned) [Example C9, (3,4-Dichlorophenyl)[(3R,8*S)-11,11-difluoro-8-hydroxy-3-methyl-1,3,4,7,8,9,10,11-octahydro-2H-pyrido[4′,3′:3,4]pyrazolo[1,5-a]azepin-2-yl]methanone], for which the EC50 with HBV [1] (setting [4]) was 0.018 µM. Moreover, the CC50 at 3 days in series [2] is above 50 µM.
As for `O=C(c1ccc(Cl)c(Cl)c1)N1CCc2nn3c(c2C1)C(F)(F)CCC(CNC(=O)C(F)(F)F)C3` (stereo not drawn) [Example C17, N-{[2-(3,4-Dichlorobenzoyl)-11,11-difluoro-1,3,4,7,8,9,10,11-octahydro-2H-pyrido[4′,3′:3,4]-pyrazolo[1,5-a]azepin-8-yl]methyl}-2,2,2-trifluoroacetamide], the EC50 in the series with HBV [1] (HepG2.117, 72 h) amounted to 0.326 µM. In addition, the cytotoxic concentration (CC50) at 3 days in series [2] was 20 µM.
In the case of `C[C@@H]1Cc2nn3c(c2CN1C(=O)Nc1ccnc(Br)c1F)C(F)(F)CC(O)(CF)CC3` (single isomer, unassigned) [Example 129, (3R,9S*)—N-(2-Bromo-3-fluoropyridin-4-yl)-11,11-difluoro-9-(fluoromethyl)-9-hydroxy-3-methyl-3,4,8,9,10,11-hexahydro-1H-pyrido[4′,3′:3,4]pyrazolo[1,5-a]azepine-2(7H)-carboxamide], in the series on HBV [3], the concentration giving a half-maximal response (EC50) worked out at 6 nM.
For the compound `O=C(Nc1ccnc(Br)c1F)N1CCc2nn3c(c2C1)C(F)(F)CCC(O)(COCC(F)F)C3` (single isomer, unassigned) [Example 35, (S*)—N-(2-Bromo-3-fluoropyridin-4-yl)-8-((2,2-difluoroethoxy)methyl)-11,11-difluoro-8-hydroxy-3,4,8,9,10,11-hexahydro-1H-pyrido[4′,3′:3,4]pyrazolo[1,5-a]azepine-2(7H)-carboxamide], in the series with HBV [3], the concentration giving a half-maximal response (EC50) came to 98 nM.
For `COC(=O)NCC1CCC(F)(F)c2c3c(nn2C1)CCN(C(=O)c1ccc(Cl)c(Cl)c1)C3` (stereo not drawn) [Example C16, Methyl {[2-(3,4-dichlorobenzoyl)-11,11-difluoro-1,3,4,7,8,9,10,11-octahydro-2H-pyrido-[4′,3′:3,4]pyrazolo[1,5-a]azepin-8-yl]methyl}carbamate], the half-maximal effective concentration (EC50) in the series with HBV [1] (setting [4]) was determined as 0.177 µM. Also, in series [2], the half-maximal cytotoxic concentration (CC50) at 3 days amounted to 38.2 µM.
With `C#CC1(O)CCC(F)(F)c2c3c(nn2C1)CCN(C(=O)Nc1ccnc(Br)c1F)C3` (single isomer, unassigned) [Example 65, (S*)—N-(2-Bromo-3-fluoropyridin-4-yl)-8-ethynyl-11,11-difluoro-8-hydroxy-3,4,8,9,10,11-hexahydro-1H-pyrido[4′,3′:3,4]pyrazolo[1,5-a]azepine-2(7H)-carboxamide], in the series on HBV [3], the EC50 amounted to 144 nM.
For `C#CC1(O)CCC(F)(F)c2c3c(nn2C1)C[C@@H](C)N(C(=O)Nc1ccc(F)c(C#N)c1)C3` (single isomer, unassigned) [Example 98, (3R,8S*)—N-(3-Cyano-4-fluorophenyl)-8-ethynyl-11,11-difluoro-8-hydroxy-3-methyl-3,4,8,9,10,11-hexahydro-1H-pyrido[4′,3′:3,4]pyrazolo[1,5-a]azepine-2(7H)-carboxamide], in the series on HBV [3], the EC50 was found to be 51 nM.

The record behind these values is patent US20220323455A1, “FUSED HETEROCYCLIC DERIVATIVES AS ANTIVIRAL AGENTS” (priority 2019, published 2022).
